Data set [1] relates to balloon-injured right carotid artery. Briefly: Restenosis test in dog carotid artery balloon injury model. It counts as in vivo, dog (beagle). To be noted: 28 days after balloon injury. As to the method: 21 Male adult beagles (9.4 to 11.4 kg) purchased from NIPPON NOSAN KOGYO were anesthetized with an intravenous administration of pentobarbital sodium at 30 mg/kg per animal. After immobilizing each animal in the spine position, the cervical part was incised and the right and left carotid arteries were exposed. After intravenous administration of 1000 U of heparin sodium, the right carotid artery branch was incised and the tip of a balloon catheter (Baxter 4 Fr, 40 cm) was inserted from the carotid artery to the aortic arch. With the balloon being inflated with application of pressure, the catheter was drawn out to injure the intima of the blood vessel. This procedure was repeated 5 times, and the balloon catheter was taken out, and the incision in the blood vessel was ligated. After suturing the skin incision, 1000 U of heparin sodium and 100 mg of ampicillin sodium were administered intramuscularly for the postoperative maintenance.
3 Groups each including 7 balloon-injured dogs were divided as the high dose treatment group, low dose treatment group and non-treatment group. 2-(5-Formylamino-6-oxo-2-phenyl-1,6-dihydropyrimidin-1-yl)-N-[2,3-dioxo-1-phenylmethyl-6-(2-pyridyloxy)]hexylacetamide (No. 10) was given at a dose of 1 mg/kg in the high dose treatment group and at 0.2 mg/kg in the low dose treatment group once a day in capsules every day over a period of 33 days in total from 5 days before the balloon injury through the day of the blood vessel sampling. In the non-treatment group, vacant capsules were given every day. In all groups, 50 ml or more of a tap water was given forcibly after administration.
Twenty eight (28) days after the balloon injury, 30 mg/kg of pentobarbital sodium was given intravenously to anesthetize. After exsanguination, the right carotid artery as an injured position was isolated, and cut into 3 pieces. About 5 mm was cut out of each of the sections which were distal, proximal and center with regard to the heart. The left carotid artery was also isolated as a non-injury position, from the center of which about 5 mm was cut off, and each was fixed in 10% formalin neutral buffer solution.
Each vascular tissue embedded in a paraffin was shaved into sections, and subjected to a Hematoxylin-Eoshin staining. The intraluminal area, the area inside the intima and the area inside the media were measured using Olympus Image Analyzer Model VM-30.
Based on the areas obtained in (D) described above and using the following equation, a vascular stenosis ratio and a vascular lumen ratio of each position were calculated, and the mean of the three positions was regarded as the value of each individual animal. In the equation, A is an area inside the intima, B is an intraluminal area and C is an area inside the media. […]

Data set [2] concerns implanted blood vessel (jugular vein implanted into the carotid artery). Briefly: Restenosis test in dog bypass graft model. It counts as in vivo, dog (beagle). The conditions noted are these: implanted blood vessel 28 days after bypass grafting, 5 mg/kg orally once a day for 33 days. The procedure: (§1) 10 Male adult beagles (8 to 10 kg) purchased from NIPPON SLC were anesthetized with an intravenous administration of pentobarbital sodium at 35 mg/kg per animal. The cervical position was incised, and a right jugular vein was isolated and implanted into the carotid artery on the same side (J.Hum.Hypertens., 12 (suppl.1), S21(1999)). After implantation, the incision was sutured and the animal was raised as usual after coming out from the anesthetic.
(§2) 2 Groups each including 5 dogs, which had been subjected to the bypass grafting, were provided as the treatment group and the non-treatment group. In the treatment group, 2-(5-formylamino-6-oxo-2-phenyl-1,6-dihydropyrimidin-1-yl)-N-[2,3-dioxo-1-phenylmethyl-6-(2-pyridyloxy)]hexylacetamide (No. 10) was orally administered at a dose of 5 mg/kg once a day in capsules every day over a period of 33 days in total from 5 days before the bypass grafting through the day of the blood vessel sampling.
28 Days after the bypass grafting, 35 mg/kg of pentobarbital sodium was given intravenously to anesthetize. The implanted vein and the jugular vein on the other side were isolated, and each was cut at the center. […]
Based on the areas obtained in (D) described above and using the following equation, a vascular stenosis ratio of each individual animal was calculated. […]

The next data set concerns the target T1, chymase (Canis lupus familiaris, UniProt P21842).
T1 construct: An isolated blood vessel was combined with a 10-fold volume (w/v) of a 20 mM sodium phosphate buffer solution (pH7.4); from tissue; host or cells: implanted jugular vein graft of beagle dogs (homogenate, high-salt/detergent extract supernatant)
T1 sequence (P21842 22-249): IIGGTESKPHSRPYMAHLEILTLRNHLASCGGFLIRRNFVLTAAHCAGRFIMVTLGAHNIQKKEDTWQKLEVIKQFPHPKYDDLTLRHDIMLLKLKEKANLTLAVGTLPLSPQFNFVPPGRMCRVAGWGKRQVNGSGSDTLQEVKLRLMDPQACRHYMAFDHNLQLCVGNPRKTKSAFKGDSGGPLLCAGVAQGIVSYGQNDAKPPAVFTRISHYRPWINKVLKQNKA
Briefly: Chymase activity measurement in implanted blood vessel, dog bypass graft model. The class given is in vivo, dog (beagle). The conditions noted are these: implanted blood vessel 28 days after bypass grafting; 5 mg/kg orally once a day in capsules for 33 days; angiotensin I substrate. The procedure:
(A) Bypass Graft Model Preparation
as §1, §2
28 Days after the bypass grafting, 35 mg/kg of pentobarbital sodium was given intravenously to anesthetize. […]
The chymase activity was measured using angiotensin I as a substrate. […] Immediately after completion of the reaction, angiotensin II produced was quantified using a high performance liquid chromatography, and the chymase activity of the tissue was calculated.

The conditions of data set [3]: rat, in vivo, po, 100 mg/kg. From the text:
A compound employed in the invention has a low toxicity, and any compound undergoes a characteristically low accumulation of the toxicity when given continuously. […] In addition, another characteristic advantage is the possibility of giving orally as a therapeutic or prophylactic agent for an angiostenosis.

For data set [4] the following is noted: clinical tests in Japan (RINSHO IYAKU, 12(1), 65 (1996)); cited from earlier work.
Where [5] appears, read: High dose 1 mg/kg once a day in capsules for 33 days, p<0.05 vs non-treatment.

Take `O=CNc1cnc(-c2ccccc2)n(CC(=O)NC(Cc2ccccc2)C(=O)C(=O)CCCOc2ccccn2)c1=O` (stereo not drawn) [Compound No. 10, 2-(5-formylamino-6-oxo-2-phenyl-1,6-dihydropyrimidin-1-yl)-N-[2,3-dioxo-1-phenylmethyl-6-(2-pyridyloxy)]hexylacetamide]: the Vascular lumen ratio in data set [1] (setting [5]) amounted to 41.6 ± 1.1 %; in data set [1] (Low dose 0.2 mg/kg once a day in capsules for 33 days, B/Cx100), 38.4 ± 2.0%. The Vascular stenosis ratio worked out at 10.5 ± 1.8 % in data set [1] (setting [5]), 13.6 ± 2.0% in data set [1] (Low dose 0.2 mg/kg once a day in capsules for 33 days) and 30.9 ± 8.8% in data set [2] ([(A-B)/(C-A)]x100). Further, the intima area in data set [2] was found to be 1.78 ± 0.12 mm2. This molecule also showed a Chymase activity on chymase of 4.88 ± 0.53 mU/mg protein. Moreover, in data set [3], the toxicological change result is “no toxicological change”.

For `COc1ccc(/C=C/C(=O)Nc2ccccc2C(=O)O)cc1OC` [tranilast], the “side effect in clinical tests” value in data set [4] is on record as “hepatic dysfunction as a highly frequent side effect”.

These data come from patent US20040019068A1, “Novel remedies or preventives for angiostenosis” (priority 2000, published 2004).
